PubChem BioAssay (NCI)
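Protocol summary: plate cells (96-well), add compound at 5 concentrations, incubate 48 h, interpolate endpoints linearly. Abbreviation: GI50, concentration required for 50% inhibition of growth. TGI: total growth inhibition.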

Columns and labels:
Experiment in all cases: NCI anticancer screen, dose series, 48 h
NCI-H226 lung = test system: NCI-H226 lung
K-562 leukemia = test system: K-562 leukemia
TK-10 renal = test system: TK-10 renal
MOLT-4 leukemia = test system: MOLT-4 leukemia
CCRF-CEM leukemia = test system: CCRF-CEM leukemia
IGROV1 ovarian = test system: IGROV1 ovarian
PC-3 prostate = test system: PC-3 prostate
SF-295 CNS = test system: SF-295 CNS
MDA-MB-435 = test system: MDA-MB-435
U251 CNS = test system: U251 CNS
SNB-75 CNS = test system: SNB-75 CNS
SR leukemia = test system: SR leukemia
NCI-H23 lung = test system: NCI-H23 lung
MCF7 breast = test system: MCF7 breast
MDA-MB-231 breast = test system: MDA-MB-231 breast
CAKI-1 renal = test system: CAKI-1 renal
HCT-116 colon = test system: HCT-116 colon
RPMI-8226 leukemia = test system: RPMI-8226 leukemia
UACC-257 melanoma = test system: UACC-257 melanoma
COLO 205 colon = test system: COLO 205 colon
A498 renal = test system: A498 renal
UO-31 renal = test system: UO-31 renal
786-0 renal = test system: 786-0 renal
M14 melanoma = test system: M14 melanoma
SF-539 CNS = test system: SF-539 CNS
EKVX NSCLC = test system: EKVX NSCLC
SF-268 CNS = test system: SF-268 CNS
T-47D breast = test system: T-47D breast
UACC-62 melanoma = test system: UACC-62 melanoma
ACHN renal = test system: ACHN renal
HOP-62 NSCLC = test system: HOP-62 NSCLC
OVCAR-5 ovarian = test system: OVCAR-5 ovarian
SW-620 colon = test system: SW-620 colon
HL-60(TB) leukemia = test system: HL-60(TB) leukemia
OVCAR-4 ovarian = test system: OVCAR-4 ovarian
NCI/ADR-RES ovarian = test system: NCI/ADR-RES ovarian
SNB-19 CNS = test system: SNB-19 CNS
SK-MEL-5 melanoma = test system: SK-MEL-5 melanoma
NCI-H522 lung = test system: NCI-H522 lung
MALME-3M melanoma = test system: MALME-3M melanoma
HOP-92 NSCLC = test system: HOP-92 NSCLC
SK-MEL-2 melanoma = test system: SK-MEL-2 melanoma
SK-OV-3 ovarian = test system: SK-OV-3 ovarian
BT-549 breast = test system: BT-549 breast
KM12 colon = test system: KM12 colon
SK-MEL-28 melanoma = test system: SK-MEL-28 melanoma
SN12C renal = test system: SN12C renal
OVCAR-3 ovarian = test system: OVCAR-3 ovarian
HCT-15 colon = test system: HCT-15 colon
HT29 colon = test system: HT29 colon
LOX IMVI melanoma = test system: LOX IMVI melanoma
A549 NSCLC = test system: A549 NSCLC
NCI-H460 lung = test system: NCI-H460 lung
HS 578T breast = test system: HS 578T breast
RXF 393 renal = test system: RXF 393 renal
DU-145 prostate = test system: DU-145 prostate
OVCAR-8 ovarian = test system: OVCAR-8 ovarian
HCC-2998 colon = test system: HCC-2998 colon

COc1cc2ncnc(Nc3cccc(Cl)c3F)c2cc1OC(=O)N1CCN(C)C[C@H]1C
GI50 (NCI-H226 lung): > 45.9 µM | TGI (NCI-H226 lung): > 75.6 µM | GI50 (K-562 leukemia): > 30.7 µM | TGI (K-562 leukemia): > 63.9 µM | GI50 (TK-10 renal): 0.18 µM | TGI (TK-10 renal): 20 µM | GI50 (MOLT-4 leukemia): > 46.2 µM | TGI (MOLT-4 leukemia): > 81.3 µM | GI50 (CCRF-CEM leukemia): > 55.9 µM | TGI (CCRF-CEM leukemia): > 100 µM | GI50 (IGROV1 ovarian): 0.888 µM | TGI (IGROV1 ovarian): > 63.9 µM | GI50 (PC-3 prostate): 35.3 µM | TGI (PC-3 prostate): > 93.3 µM | GI50 (SF-295 CNS): > 38.1 µM | TGI (SF-295 CNS): > 56 µM | GI50 (MDA-MB-435): > 40.7 µM | TGI (MDA-MB-435): > 59.7 µM | GI50 (U251 CNS): > 44.2 µM | TGI (U251 CNS): > 64.5 µM | GI50 (SNB-75 CNS): 10.8 µM | TGI (SNB-75 CNS): > 50.1 µM | GI50 (SR leukemia): > 45.8 µM | TGI (SR leukemia): > 71.8 µM | GI50 (NCI-H23 lung): > 47.5 µM | TGI (NCI-H23 lung): 97.3 µM | GI50 (MCF7 breast): > 39 µM | TGI (MCF7 breast): > 77.3 µM | GI50 (MDA-MB-231 breast): 25.3 µM | TGI (MDA-MB-231 breast): > 59.5 µM | GI50 (CAKI-1 renal): 0.555 µM | TGI (CAKI-1 renal): > 54.1 µM | GI50 (HCT-116 colon): > 38.5 µM | TGI (HCT-116 colon): > 56.9 µM | GI50 (RPMI-8226 leukemia): > 42.6 µM | TGI (RPMI-8226 leukemia): > 68.2 µM | GI50 (UACC-257 melanoma): > 41.1 µM | TGI (UACC-257 melanoma): > 59.2 µM | GI50 (COLO 205 colon): > 38.1 µM | TGI (COLO 205 colon): > 58.1 µM | GI50 (A498 renal): 3.44 µM | TGI (A498 renal): > 45.1 µM | GI50 (UO-31 renal): 6.89 µM | TGI (UO-31 renal): > 50.2 µM | GI50 (786-0 renal): > 34.2 µM | TGI (786-0 renal): > 53.3 µM | GI50 (M14 melanoma): > 40.9 µM | TGI (M14 melanoma): > 62.8 µM | GI50 (SF-539 CNS): > 40.4 µM | TGI (SF-539 CNS): > 58.9 µM | GI50 (EKVX NSCLC): 0.253 µM | TGI (EKVX NSCLC): > 61.2 µM | GI50 (SF-268 CNS): > 37.1 µM | TGI (SF-268 CNS): > 75.3 µM | GI50 (T-47D breast): 2.47 µM | TGI (T-47D breast): > 45.5 µM | GI50 (UACC-62 melanoma): > 40.7 µM | TGI (UACC-62 melanoma): > 65.5 µM | GI50 (ACHN renal): 0.273 µM | TGI (ACHN renal): > 46.3 µM | GI50 (HOP-62 NSCLC): > 35.7 µM | TGI (HOP-62 NSCLC): > 66.3 µM | GI50 (OVCAR-5 ovarian): > 32.7 µM | TGI (OVCAR-5 ovarian): > 90.8 µM | GI50 (SW-620 colon): > 44.9 µM | TGI (SW-620 colon): > 69.7 µM | GI50 (HL-60(TB) leukemia): > 47.3 µM | TGI (HL-60(TB) leukemia): > 70.5 µM | GI50 (OVCAR-4 ovarian): > 44.5 µM | TGI (OVCAR-4 ovarian): > 79.1 µM | GI50 (NCI/ADR-RES ovarian): > 36.3 µM | TGI (NCI/ADR-RES ovarian): > 75.2 µM | GI50 (SNB-19 CNS): > 44.8 µM | TGI (SNB-19 CNS): > 100 µM | GI50 (SK-MEL-5 melanoma): > 39.8 µM | TGI (SK-MEL-5 melanoma): > 56.9 µM | GI50 (NCI-H522 lung): 0.523 µM | TGI (NCI-H522 lung): > 31.3 µM | GI50 (MALME-3M melanoma): > 39.5 µM | TGI (MALME-3M melanoma): > 60.6 µM | GI50 (HOP-92 NSCLC): 14.2 µM | TGI (HOP-92 NSCLC): > 54.8 µM | GI50 (SK-MEL-2 melanoma): > 43.6 µM | TGI (SK-MEL-2 melanoma): > 61.1 µM | GI50 (SK-OV-3 ovarian): 1.12 µM | TGI (SK-OV-3 ovarian): > 32.1 µM | GI50 (BT-549 breast): > 42.2 µM | TGI (BT-549 breast): > 67.2 µM | GI50 (KM12 colon): > 50.5 µM | TGI (KM12 colon): > 88.5 µM | GI50 (SK-MEL-28 melanoma): > 42.2 µM | TGI (SK-MEL-28 melanoma): > 65.5 µM | GI50 (SN12C renal): 40.5 µM | TGI (SN12C renal): > 100 µM | GI50 (OVCAR-3 ovarian): > 33.6 µM | TGI (OVCAR-3 ovarian): > 61.8 µM | GI50 (HCT-15 colon): > 41.4 µM | TGI (HCT-15 colon): > 88.8 µM | GI50 (HT29 colon): > 38.4 µM | TGI (HT29 colon): > 64.9 µM | GI50 (LOX IMVI melanoma): > 36.5 µM | TGI (LOX IMVI melanoma): > 53.8 µM | GI50 (A549 NSCLC): > 34.3 µM | TGI (A549 NSCLC): > 58.2 µM | GI50 (NCI-H460 lung): > 48.8 µM | TGI (NCI-H460 lung): > 82.4 µM | GI50 (HS 578T breast): 21 µM | TGI (HS 578T breast): > 60.8 µM | GI50 (RXF 393 renal): > 34.4 µM | TGI (RXF 393 renal): > 50.8 µM | GI50 (DU-145 prostate): 7.35 µM | TGI (DU-145 prostate): > 100 µM | GI50 (OVCAR-8 ovarian): > 40.9 µM | TGI (OVCAR-8 ovarian): > 77.9 µM | GI50 (HCC-2998 colon): > 45.4 µM | TGI (HCC-2998 colon): > 70 µM
